Values quoted from earlier work as cited in patent US7510874B2, “Stable cell lines expressing HERG1a and HERG1b” (priority 2003, dated 2009).

Target: IKr currents (Homo sapiens, UniProt Q12809)
Details: background statement with literature references

Sequence of IKr currents (Q12809 whole entry): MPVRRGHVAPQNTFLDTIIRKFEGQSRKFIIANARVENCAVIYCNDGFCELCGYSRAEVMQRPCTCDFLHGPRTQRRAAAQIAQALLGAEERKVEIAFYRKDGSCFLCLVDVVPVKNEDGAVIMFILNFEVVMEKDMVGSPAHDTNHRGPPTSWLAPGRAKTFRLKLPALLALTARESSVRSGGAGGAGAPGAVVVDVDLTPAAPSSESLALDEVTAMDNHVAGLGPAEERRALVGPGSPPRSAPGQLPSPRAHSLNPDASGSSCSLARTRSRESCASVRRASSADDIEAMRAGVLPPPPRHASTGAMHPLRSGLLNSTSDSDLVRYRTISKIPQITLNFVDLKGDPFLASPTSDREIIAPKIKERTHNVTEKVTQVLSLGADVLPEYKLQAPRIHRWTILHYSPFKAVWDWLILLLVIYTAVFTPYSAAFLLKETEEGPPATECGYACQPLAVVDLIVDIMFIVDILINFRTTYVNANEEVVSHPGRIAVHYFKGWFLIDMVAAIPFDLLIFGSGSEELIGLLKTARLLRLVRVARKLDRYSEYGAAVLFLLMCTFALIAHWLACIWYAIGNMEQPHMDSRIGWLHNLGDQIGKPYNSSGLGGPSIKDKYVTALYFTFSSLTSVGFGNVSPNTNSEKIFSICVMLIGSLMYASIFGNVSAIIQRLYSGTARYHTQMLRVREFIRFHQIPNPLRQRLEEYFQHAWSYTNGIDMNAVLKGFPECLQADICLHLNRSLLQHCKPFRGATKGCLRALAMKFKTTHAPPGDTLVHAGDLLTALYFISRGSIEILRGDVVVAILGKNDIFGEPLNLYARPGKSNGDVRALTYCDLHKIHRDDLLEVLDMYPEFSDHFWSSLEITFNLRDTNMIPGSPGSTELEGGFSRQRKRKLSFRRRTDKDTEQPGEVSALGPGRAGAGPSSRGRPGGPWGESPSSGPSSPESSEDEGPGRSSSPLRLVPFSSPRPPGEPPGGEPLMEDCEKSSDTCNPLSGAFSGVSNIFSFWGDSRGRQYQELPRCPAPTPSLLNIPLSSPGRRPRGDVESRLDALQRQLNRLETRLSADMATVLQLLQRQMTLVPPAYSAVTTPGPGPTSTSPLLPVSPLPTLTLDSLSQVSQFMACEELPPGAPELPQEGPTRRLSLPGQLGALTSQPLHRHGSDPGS

COc1cc(N)c(Cl)cc1C(=O)NC1CCN(CCCOc2ccc(F)cc2)CC1OC (stereo not shown) [cisapride]
block of IKr currents (cause of acquired LQTS): block of IKr currents
